Assay results as given in ChEMBL document CHEMBL3758138, “Synthesis and pharmacological evaluation of dehydroabietic acid thiourea derivatives containing bisphosphonate moiety as an inducer of apoptosis” (Eur J Med Chem, 2016).
Active and inactive are the calls of the source. The rule behind the calls is not given here.

How the values were obtained:
[1] = Cytotoxic activity against human SKOV3 cells assessed as inhibition of cell growth after 48 hrs by MTT assay; format: functional, cell-based; settings: SK-OV-3, 48 h
[2] = Cytotoxic activity against human Bel7404 cells assessed as inhibition of cell growth after 48 hrs by MTT assay; format: functional, cell-based; settings: BEL-7404, 48 h
A549 = assay: Cytotoxic activity against human A549 cells assessed as inhibition of cell growth after 48 hrs by MTT assay; format: functional, cell-based; settings: A549, 48 h
[3] = Cytotoxic activity against human HCT116 cells assessed as inhibition of cell growth after 48 hrs by MTT assay; format: functional, cell-based; settings: HCT-116, 48 h
NCI-H460 = assay: Cytotoxic activity against human NCI-H460 cells assessed as inhibition of cell growth after 48 hrs by MTT assay; format: functional, cell-based; settings: NCI-H460, 48 h
[4] = target: Cyclin-dependent kinase 2/cyclin E1 (Homo sapiens, UniProt P24941); assay: Inhibition of human recombinant C-terminal His6-tagged full length human Cdk2/human recombinant N-terminal GST-tagged full-length Cyclin E using histone H1 substrate after 40 mins by radiometric filter binding assay; format: protein-complex assay
SK-OV-3 [5] = assay: Induction of apoptosis in human SKOV3 cells assessed as increase in chromatin condensation at 5 uM after 24 hrs by Hoechst 33258 staining based fluorescence microscopic analysis; format: functional, cell-based
SK-OV-3 [6] = assay: Induction of apoptosis in human SKOV3 assessed as loss of membrane integrity at 5 uM after 12 to 24 hrs by AO/EB staining based fluorescence microscopic analysis; format: functional
SK-OV-3 [7] = assay: Induction of ROS generation in human SKOV3 cells at 5 uM after 12 hrs by DCF-DA dye based flow cytometry (reference value: 12.9%); format: functional
SK-OV-3 [8] = assay: Induction of ROS generation in human SKOV3 cells at 5 uM after 24 hrs by DCF-DA dye based flow cytometry (reference value: 12.9%); format: functional
SK-OV-3 [9] = assay: Induction of apoptosis in human SKOV3 cells assessed as depolarization of mitochondria at 5 uM after 12 to 24 hrs by JC-1 dye based fluorescence microscopic analysis; format: functional
SK-OV-3 [10] = assay: Induction of apoptosis in human SKOV3 cells assessed as increase in cytochrome c level in cytosol at 5 uM after 12 to 24 hrs by Western blot analysis; format: functional, cell-based
SK-OV-3 [11] = assay: Induction of apoptosis in human SKOV3 cells assessed as caspase-9 cleavage at 5 uM after 12 to 24 hrs by Western blot analysis; format: functional, cell-based
SK-OV-3 [12] = assay: Induction of apoptosis in human SKOV3 cells assessed as caspase-3 cleavage at 5 uM after 12 to 24 hrs by Western blot analysis; format: functional, cell-based
SK-OV-3 [13] = assay: Induction of apoptosis in human SKOV3 cells assessed as caspase-3 activity by Ac-DEVD-pNA based spectrophotometric analysis; format: functional, cell-based; settings: TDE = time-dependent effect
SK-OV-3 [14] = assay: Induction of apoptosis in human SKOV3 cells assessed as caspase-9 activity by Ac-LEHD-pNA based spectrophotometric analysis; format: functional, cell-based; settings: TDE = time-dependent effect
SK-OV-3 [15] = assay: Induction of apoptosis in human SKOV3 cells after 12 hrs by Annexin V-FITC/PI staining based flow cytometry; format: functional, cell-based
SK-OV-3 [16] = assay: Induction of apoptosis in human SKOV3 cells assessed as late apoptotic cells at 3 uM after 12 hrs by Annexin V-FITC/PI staining based flow cytometry (reference value: 1.5%); format: functional
SK-OV-3 [17] = assay: Induction of apoptosis in human SKOV3 cells assessed as late apoptotic cells at 5 uM after 12 hrs by Annexin V-FITC/PI staining based flow cytometry (reference value: 1.5%); format: functional
SK-OV-3 [18] = assay: Induction of apoptosis in human SKOV3 cells assessed as early apoptotic cells at 3 uM after 12 hrs by Annexin V-FITC/PI staining based flow cytometry (reference value: 2.8%); format: functional
SK-OV-3 [19] = assay: Induction of apoptosis in human SKOV3 cells assessed as early apoptotic cells at 5 uM after 12 hrs by Annexin V-FITC/PI staining based flow cytometry (reference value: 2.8%); format: functional
SK-OV-3 [20] = assay: Induction of ROS generation in human SKOV3 cells at 5 uM after 12 hrs by DCF-DA dye based flow cytometry relative to control; format: functional
[21] = Upregulation of Bax protein expression in human SKOV3 cells at 5 uM after 12 to 24 hrs by Western blot analysis; format: functional, cell-based; settings: SK-OV-3
[22] = Downregulation of Bcl-2 protein expression in human SKOV3 cells after 12 to 24 hrs by Western blot analysis; format: functional, cell-based; settings: SK-OV-3
SK-OV-3 [23] = assay: Induction of Fas protein expression in human SKOV3 cells after 12 to 24 hrs by Western blot analysis; format: functional, cell-based
SK-OV-3 [24] = assay: Induction of apoptosis in human SKOV3 cells assessed as reduction in caspase-8 level in cytoplasm at 5 uM after 12 to 24 hrs by Western blot analysis; format: functional, cell-based
[25] = Cell cycle arrest in human SKOV3 cells assessed as accumulation at G1 phase at 3 uM after 24 hrs by propidium iodide staining based flow cytometry (reference value: 53.38%); format: functional; settings: SK-OV-3
[26] = Cell cycle arrest in human SKOV3 cells assessed as accumulation at G2 phase at 3 uM after 24 hrs by propidium iodide staining based flow cytometry (reference value: 8.85%); format: functional; settings: SK-OV-3
[27] = Cell cycle arrest in human SKOV3 cells assessed as accumulation at S phase at 3 uM after 24 hrs by propidium iodide staining based flow cytometry (reference value: 37.77%); format: functional; settings: SK-OV-3
[28] = Cell cycle arrest in human SKOV3 cells assessed as accumulation at G1 phase at 5 uM after 24 hrs by propidium iodide staining based flow cytometry (reference value: 53.38%); format: functional; settings: SK-OV-3
[29] = Cell cycle arrest in human SKOV3 cells assessed as accumulation at G2 phase at 5 uM after 24 hrs by propidium iodide staining based flow cytometry (reference value: 8.85%); format: functional; settings: SK-OV-3
[30] = Cell cycle arrest in human SKOV3 cells assessed as accumulation at S phase at 5 uM after 24 hrs by propidium iodide staining based flow cytometry (reference value: 37.77%); format: functional; settings: SK-OV-3

CCOP(=O)(OCC)C(CNc1cccc(NC(=S)NC(=O)[C@]2(C)CCC[C@]3(C)c4ccc(C(C)C)cc4CC[C@@H]23)c1C)P(=O)(OCC)OCC
IC50 [1]: 17.3 µM
IC50 [2]: 11.9 µM
IC50 (A549): 15.7 µM
IC50 [3]: 11.9 µM
IC50 (NCI-H460): 14.2 µM
IC50 [4]: 5.98 µM

CCOP(=O)(OCC)C(CNc1ccc(Oc2ccc(NC(=S)NC(=O)[C@]3(C)CCC[C@]4(C)c5ccc(C(C)C)cc5CC[C@@H]34)cc2)cc1)P(=O)(OCC)OCC
IC50 [1]: 58.9 µM
IC50 [2]: 31.3 µM
IC50 (A549): 20 µM
IC50 [3]: 44.6 µM
IC50 (NCI-H460): 38.2 µM
IC50 [4]: 40.9 µM

CCOP(=O)(OCC)C(CNc1cccc(NC(=S)NC(=O)[C@]2(C)CCC[C@]3(C)c4ccc(C(C)C)cc4CC[C@@H]23)c1)P(=O)(OCC)OCC
IC50 [1]: 16.5 µM
IC50 [2]: 10.3 µM
IC50 (A549): 15.4 µM
IC50 [3]: 11.3 µM
IC50 (NCI-H460): 13.7 µM
IC50 [4]: > 50 µM

CCOP(=O)(OCC)C(CNc1ccc(S(=O)(=O)c2ccc(NC(=S)NC(=O)[C@]3(C)CCC[C@]4(C)c5ccc(C(C)C)cc5CC[C@@H]34)cc2)cc1)P(=O)(OCC)OCC
IC50 [1]: 53.9 µM
IC50 [2]: 32.2 µM
IC50 (A549): 41.9 µM
IC50 [3]: 56 µM
IC50 (NCI-H460): 32.7 µM
IC50 [4]: 0.65 µM

CC(C)c1ccc2c(c1)CC[C@H]1[C@](C)(C(=O)O)CCC[C@]21C [DEHYDROABIETIC ACID]
IC50 [1]: 65.1 µM
IC50 [2]: 28.7 µM
IC50 (A549): 55.6 µM
IC50 [3]: 30.2 µM
IC50 (NCI-H460): 75 µM
IC50 [4]: 36.3 µM

CCOP(=O)(OCC)C(CNc1ccc(NC(=S)NC(=O)[C@]2(C)CCC[C@]3(C)c4ccc(C(C)C)cc4CC[C@@H]23)cc1)P(=O)(OCC)OCC
IC50 [1]: 16.6 µM
IC50 [2]: 12.1 µM
IC50 (A549): 15.9 µM
IC50 [3]: 12.2 µM
IC50 (NCI-H460): 13 µM
IC50 [4]: 17.8 µM

CCOP(=O)(OCC)C(CNc1ccc(F)cc1NC(=S)NC(=O)[C@]1(C)CCC[C@]2(C)c3ccc(C(C)C)cc3CC[C@@H]12)P(=O)(OCC)OCC
Activity (SK-OV-3 [5]): Dose-dependent effect
Activity (SK-OV-3 [6]): Active
Activity (SK-OV-3 [7]): 33.6%
Activity (SK-OV-3 [8]): 49.3%
Activity (SK-OV-3 [9]): Active
Activity (SK-OV-3 [10]): Active
Activity (SK-OV-3 [11]): Active
Activity (SK-OV-3 [12]): Active
Activity (SK-OV-3 [13]): tde
Activity (SK-OV-3 [14]): tde
IC50 [1]: 1.79 µM
IC50 [2]: 7.1 µM
IC50 (A549): 6.93 µM
IC50 [3]: 6.01 µM
IC50 (NCI-H460): 8.17 µM
Activity (SK-OV-3 [15]): Dose-dependent effect
Activity (SK-OV-3 [16]): 14.4%
Activity (SK-OV-3 [17]): 5.7%
Activity (SK-OV-3 [18]): 14.5%
Activity (SK-OV-3 [19]): 24.7%
fold change (FC) (SK-OV-3 [20]): 2
Activity [21]: Dose-dependent effect
Activity [22]: Dose-dependent effect
Activity (SK-OV-3 [23]): Dose-dependent effect
Activity (SK-OV-3 [24]): Active
Activity [25]: 59.8%
Activity [26]: 13.4%
Activity [27]: 26.9%
Activity [28]: 68.1%
Activity [29]: 10.5%
Activity [30]: 21.4%
IC50 [4]: 0.13 µM

O=c1[nH]cc(F)c(=O)[nH]1 [FLUOROURACIL]
IC50 [1]: 22.4 µM
IC50 [2]: 30.2 µM
IC50 [3]: 24.6 µM
IC50 (NCI-H460): 35.5 µM

CCOP(=O)(OCC)C(CNc1cc(Cl)c(NC(=S)NC(=O)[C@]2(C)CCC[C@]3(C)c4ccc(C(C)C)cc4CC[C@@H]23)cc1Cl)P(=O)(OCC)OCC
IC50 [1]: 22.1 µM
IC50 [2]: 24.6 µM
IC50 (A549): 16.4 µM
IC50 [3]: 20.2 µM
IC50 (NCI-H460): 24 µM
IC50 [4]: > 50 µM

CCOP(=O)(OCC)C(CNc1ccc(Cc2ccc(NC(=S)NC(=O)[C@]3(C)CCC[C@]4(C)c5ccc(C(C)C)cc5CC[C@@H]34)cc2)cc1)P(=O)(OCC)OCC
IC50 [1]: 28.9 µM
IC50 [2]: 35.9 µM
IC50 (A549): 33.6 µM
IC50 [3]: 25.5 µM
IC50 (NCI-H460): 37.6 µM
IC50 [4]: 29.5 µM

CCOP(=O)(OCC)C(CNc1cc(C)c(C)cc1NC(=S)NC(=O)[C@]1(C)CCC[C@]2(C)c3ccc(C(C)C)cc3CC[C@@H]12)P(=O)(OCC)OCC
IC50 [1]: 19.5 µM
IC50 [2]: 12.7 µM
IC50 (A549): 13.8 µM
IC50 [3]: 13.1 µM
IC50 (NCI-H460): 28.3 µM
IC50 [4]: 2.56 µM

CCOP(=O)(OCC)C(CNc1ccccc1NC(=S)NC(=O)[C@]1(C)CCC[C@]2(C)c3ccc(C(C)C)cc3CC[C@@H]12)P(=O)(OCC)OCC
IC50 [1]: 16.5 µM
IC50 [2]: 12.5 µM
IC50 (A549): 15 µM
IC50 [3]: 11.4 µM
IC50 (NCI-H460): 13.9 µM
IC50 [4]: 15.3 µM

CCOP(=O)(OCC)C(CNc1ccc(Sc2ccc(NC(=S)NC(=O)[C@]3(C)CCC[C@]4(C)c5ccc(C(C)C)cc5CC[C@@H]34)cc2)cc1)P(=O)(OCC)OCC
IC50 [1]: 40.9 µM
IC50 [2]: 39.2 µM
IC50 (A549): 38.8 µM
IC50 [3]: 34.1 µM
IC50 (NCI-H460): 40.9 µM
IC50 [4]: 1.01 µM
